Test results as given in patent US20250268903A1, “RXFP1 AGONISTS” (BRISTOL-MYERS SQUIBB COMPANY, priority 2021, published 2025).

The compounds below were run against T1, human RXFP1 (Homo sapiens, UniProt Q9HBX9) (assay: hRXFP1 HEK293 cAMP assay (HTRF)). Conditions: HEK293 cells stably expressing human RXFP1, 30 min at room temperature.
T1 construct: expressed in transfected cells
T1 sequence (Q9HBX9 1-757): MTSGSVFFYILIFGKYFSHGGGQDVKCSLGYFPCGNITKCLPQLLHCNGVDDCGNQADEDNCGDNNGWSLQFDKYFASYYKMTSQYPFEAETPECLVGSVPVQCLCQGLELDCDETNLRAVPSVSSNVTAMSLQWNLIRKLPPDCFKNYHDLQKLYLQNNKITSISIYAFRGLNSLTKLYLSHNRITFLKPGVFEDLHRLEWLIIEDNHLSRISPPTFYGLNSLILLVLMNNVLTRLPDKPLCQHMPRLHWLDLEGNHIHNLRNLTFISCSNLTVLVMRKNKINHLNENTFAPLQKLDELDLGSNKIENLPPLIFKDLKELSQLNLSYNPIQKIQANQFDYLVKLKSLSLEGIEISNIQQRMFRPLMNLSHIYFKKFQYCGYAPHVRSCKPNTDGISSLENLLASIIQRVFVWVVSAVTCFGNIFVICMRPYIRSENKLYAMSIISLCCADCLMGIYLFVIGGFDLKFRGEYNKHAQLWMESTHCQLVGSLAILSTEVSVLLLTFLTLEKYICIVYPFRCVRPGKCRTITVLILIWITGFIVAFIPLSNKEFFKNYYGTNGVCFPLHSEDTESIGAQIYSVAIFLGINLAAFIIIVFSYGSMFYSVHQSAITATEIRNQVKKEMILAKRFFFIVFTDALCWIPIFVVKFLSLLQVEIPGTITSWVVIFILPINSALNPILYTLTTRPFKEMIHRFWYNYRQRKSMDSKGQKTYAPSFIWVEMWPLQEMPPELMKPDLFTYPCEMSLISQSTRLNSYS
Type: cell-based
Summary of the method: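 Intracellular cAMP was read by HTRF, with potency fitted to a 4-parameter logistic curve. Compound exposure (0.010 nM–50 μM final, 2% DMSO) lasted 30 min at room temperature. Cells were hRXFP1-HEK293 at 1500 per well in IBMX-containing (0.5 mM) HEPES-buffered HBSS.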

EC50 [nM] | Compound
13.7 | COc1ccc(/C=C/C(=O)N2CC3CCC(C2)O3)cc1C(=O)N[C@H]1[C@@H](C(=O)Nc2ccc(F)c(C(F)(F)F)c2)[C@H]2CC[C@@H]1/C2=C\C1CC1 [Example 308, (1R,2S,3R,4R,7Z)-7-(cyclopropylmethylidene)-N-[4-fluoro-3-(trifluoromethyl)phenyl]-3-{2-methoxy-5-[(1E)-3-{8-oxa-3-azabicyclo[3.2.1]octan-3-yl}-3-oxoprop-1-en-1-yl]benzamido} bicyclo[2.2.1] heptane-2-carboxamide]
17.1 | COc1ccc(/C=C/C(=O)N2CC3(CC(O)C3)C2)cc1C(=O)N[C@H]1[C@@H](C(=O)Nc2ccc(F)c(C(F)(F)F)c2)[C@H]2CC[C@@H]1/C2=C\C1CC1 [Example 309, (1R,2S,3R,4R,7Z)-7-(cyclopropylmethylidene)-N-[4-fluoro-3-(trifluoromethyl)phenyl]-3-{5-[(1E)-3-{6-hydroxy-2-azaspiro[3.3]heptan-2-yl}-3-oxoprop-1-en-1-yl]-2-methoxybenzamido} bicyclo[2.2.1]heptane-2-carboxamide]
87 | COc1ccc(/C=C/C(=O)N2CCO[C@@H](CO)C2)cc1C(=O)N[C@H]1[C@@H](C(=O)Nc2ccc(F)c(C(F)(F)F)c2)[C@H]2CC[C@@H]1/C2=C\C(F)(F)F [Example 310]
90.9 | COc1ccc(/C=C/C(=O)N2CC3CCC(C2)O3)cc1C(=O)N[C@H]1[C@@H](C(=O)Nc2ccc(F)c(C(F)(F)F)c2)[C@H]2CC[C@@H]1/C2=C\C(F)(F)F [Example 311, (1R,2S,3R,4R,7Z)-N-[4-fluoro-3-(trifluoromethyl)phenyl]-3-{2-methoxy-5-[(1E)-3-{8-oxa-3-azabicyclo[3.2.1]octan-3-yl}-3-oxoprop-1-en-1-yl]benzamido}-7-(2,2,2-trifluoroethylidene) bicyclo[2.2.1]heptane-2-carboxamide]
31.4 | COc1ccc(/C=C(\C)C(=O)N2CCC(O)CC2)cc1C(=O)N[C@H]1[C@@H](C(=O)Nc2ccc(F)c(C(F)(F)F)c2)[C@H]2CC[C@@H]1/C2=C\C(F)(F)F [Example 312, (1R,2S,3R,4R,7Z)-N-[4-fluoro-3-(trifluoromethyl)phenyl]-3-{5-[(1E)-3-(4-hydroxypiperidin-1-yl)-2-methyl-3-oxoprop-1-en-1-yl]-2-methoxybenzamido}-7-(2,2,2-trifluoroethylidene) bicyclo[2.2.1]heptane-2-carboxamide]
32.9 | COc1ccc(/C=C/C(=O)N2CC(O)C2)cc1C(=O)N[C@H]1[C@@H](C(=O)Nc2ccc(F)c(C(F)(F)F)c2)[C@H]2CC[C@@H]1/C2=C\C1CC1 [Example 313, (1R,2S,3R,4R,7Z)-7-(cyclopropyl-methylidene)-N-[4-fluoro-3-(trifluoromethyl)phenyl]-3-{5-[(1E)-3-(3-hydroxyazetidin-1-yl)-3-oxoprop-1-en-1-yl]-2-methoxybenzamido} bicyclo[2.2.1]heptane-2-carboxamide]
66.2 | COc1ccc(/C=C/C(=O)N2CC(O)C2)cc1C(=O)N[C@H]1[C@@H](C(=O)Nc2ccc(F)c(C(F)(F)F)c2)[C@H]2CC[C@@H]1/C2=C\C(F)(F)F [Example 314]
91.2 | COc1ccc(/C=C/C(=O)N2CCC(C(F)(F)F)CC2)cc1C(=O)N[C@H]1[C@@H](C(=O)Nc2ccc(F)c(C(F)(F)F)c2)[C@H]2CC[C@@H]1/C2=C\C1CC1 [Example 315]
96.7 | COc1ccc(/C=C/C(=O)N2CCC(C#N)CC2)cc1C(=O)N[C@H]1[C@@H](C(=O)Nc2ccc(F)c(C(F)(F)F)c2)[C@H]2CC[C@@H]1/C2=C\C1CC1 [Example 316, (1R,2S,3R,4R,7Z)-3-{5-[(1E)-3-(4-cyanopiperidin-1-yl)-3-oxoprop-1-en-1-yl]-2-methoxybenzamido}-7-(cyclopropylmethylidene)-N-[4-fluoro-3-(trifluoromethyl)phenyl]bicyclo[2.2.1] heptane-2-carboxamide]
140 | COc1ccc(/C=C/C(=O)N2CCC(S(C)(=O)=O)CC2)cc1C(=O)N[C@H]1[C@@H](C(=O)Nc2ccc(F)c(C(F)(F)F)c2)[C@H]2CC[C@@H]1/C2=C\C1CC1 [Example 317, (1R,2S,3R,4R,7Z)-7-(cyclopropyl-methylidene)-N-[4-fluoro-3-(trifluoromethyl)phenyl]-3-{5-[(1E)-3-(4-methanesulfonyl-piperidin-1-yl)-3-oxoprop-1-en-1-yl]-2-methoxybenzamido} bicyclo[2.2.1]heptane-2-carboxamide]
2230 | CCOC(=O)/C(C)=C/c1ccc(OC)c(C(=O)N[C@H]2[C@@H](C(=O)Nc3ccc(F)c(C(F)(F)F)c3)[C@H]3CC[C@@H]2/C3=C\C(F)(F)F)c1 [Example 318, ethyl (2E)-3-(3-{[(1R,2R,3S,4R,7Z)-3-{[4-fluoro-3-(trifluoromethyl)phenyl]carbamoyl}-7-(2,2,2-trifluoroethylidene)bicyclo[2.2.1]heptan-2-yl]carbamoyl}-4-methoxyphenyl)-2-methylprop-2-enoate]
1120 | COc1ccc(/C=C(/C)C(=O)N2CCC(O)CC2)cc1C(=O)N[C@H]1[C@@H](C(=O)Nc2ccc(F)c(C(F)(F)F)c2)[C@H]2CC[C@@H]1/C2=C\C(F)(F)F [Example 319]
81.2 | COc1ccc(CCC(=O)N2CCC(O)CC2)cc1C(=O)N[C@H]1[C@@H](C(=O)Nc2ccc(F)c(C(F)(F)F)c2)[C@H]2CC[C@@H]1/C2=C\C(F)(F)F [Example 320]
26.1 | COc1ccc(C2CC(C(=O)N3CCC(O)CC3)C2)cc1C(=O)N[C@H]1[C@@H](C(=O)Nc2ccc(F)c(C(F)(F)F)c2)[C@H]2CC[C@@H]1/C2=C\C1CC1 (stereo partly drawn) [Example 327]
210 | COC(=O)C1CC(c2ccc(OC)c(C(=O)N[C@H]3[C@@H](C(=O)Nc4ccc(F)c(C(F)(F)F)c4)[C@H]4CC[C@@H]3/C4=C\C(F)(F)F)c2)C1 (stereo partly drawn) [Example 329, methyl 3-(3-{[(1R,2R,3S,4R,7Z)-3-{[4-fluoro-3-(trifluoromethyl)phenyl]carbamoyl}-7-(2,2,2-trifluoroethylidene)bicyclo[2.2.1]heptan-2-yl]carbamoyl}-4-methoxyphenyl) cyclobutane-1-carboxylate]
79 | COc1ccc(C2CC(CO)C2)cc1C(=O)N[C@H]1[C@@H](C(=O)Nc2ccc(F)c(C(F)(F)F)c2)[C@H]2CC[C@@H]1/C2=C\C1CC1 (stereo partly drawn) [Example 330, (1R,2S,3R,4R,7Z)-7-(cyclopropylmethylidene)-N-[4-fluoro-3-(trifluoromethyl)phenyl]-3-{5-[3-(hydroxymethyl)cyclobutyl]-2-methoxybenzamido} bicyclo[2.2.1]heptane-2-carboxamide]
551 | COC(=O)C1CC(c2ccc(OC)c(C(=O)N[C@H]3[C@@H](C(=O)Nc4ccc(F)c(C(F)(F)F)c4)[C@H]4CC[C@@H]3/C4=C\C(F)(F)F)c2)C1 (stereo partly drawn) [Example 331, methyl 3-(3-{(1R.2R,3S,4R,7Z)-3-{[4-fluoro-3-(trifluoromethyl)phenyl]carbamoyl}-7-(2,2,2-trifluoroethylidene)bicyclo[2.2.1]heptan-2-yl]carbamoyl}-4-methoxyphenyl) cyclobutane-1-carboxylate]
62.3 | COc1ccc(C2CC(CO)C2)cc1C(=O)N[C@H]1[C@@H](C(=O)Nc2ccc(F)c(C(F)(F)F)c2)[C@H]2CC[C@@H]1/C2=C\C1CC1 (stereo partly drawn) [Example 333, (1R,2S,3R,4R,7Z)-7-(cyclopropyl-methylidene)-N-[4-fluoro-3-(trifluoromethyl)phenyl]-3-[5-[3-(hydroxymethyl)cyclobutyl]-2-methoxybenzamido} bicyclo[2.2.1]heptane-2-carboxamide]
181 | COc1ccc(C23CCC2CC(CO)C3)cc1C(=O)N[C@H]1[C@@H](C(=O)Nc2ccc(F)c(C(F)(F)F)c2)[C@H]2CC[C@@H]1/C2=C\C1CC1 (stereo partly drawn) [Example 353, (1R,2S,3R,4R,7Z)-7-(cyclopropyl-methylidene)-N-[4-fluoro-3-(trifluoromethyl)phenyl]-3-{5-[3-(hydroxymethyl)bicyclo[3.2.0]heptan-1-yl]-2-methoxybenzamido} bicyclo[2.2.1]heptane-2-carboxamide]
4990 | COc1ccc(C2CCCC(NCC(=O)O)C2)cc1C(=O)N[C@@H]1C2CCC(/C2=C/C(F)(F)F)[C@@H]1C(=O)Nc1ccc(F)c(C(F)(F)F)c1 (stereo partly drawn) [Example 354]
4960 | COc1ccc(C2CCCC(N3CC(F)(F)C3)C2)cc1C(=O)N[C@H]1[C@@H](C(=O)Nc2ccc(F)c(C(F)(F)F)c2)[C@H]2CC[C@@H]1/C2=C\C(F)(F)F (stereo partly drawn) [Example 355, (1R,2S,3R,4R,7Z)-3-[5-13-(3,3-difluoroazetidin-1-yl)cyclohexyl]-2-methoxybenzamido 3-N-[4-fluoro-3-(trifluoromethyl)phenyl]-7-(2,2,2-trifluoroethylidene) bicyclo[2.2.1] heptane-2-carboxamide]
